Test results: ChEMBL document CHEMBL1133987, “Broad spectrum antiprotozoal agents that inhibit histone deacetylase: structure-activity relationships of apicidin. Part 1” (Bioorg Med Chem Lett, 2001)
Converted amounts (≈) assume the structure as drawn.

How the values were obtained:
Eimeria tenella = assay: Antiprotozoal activity (functional assay) using […] bovine kidney (MDBK) host cells infected with Eimeria tenella
Histone deacetylase [1] = assay: Inhibitory activity against histone deacetylase (HDAC) derived from partially purified extracts of human HeLa cells
Plasmodium falciparum = assay: In vitro antiprotozoal activity against Plasmodium falciparum 3D7 infected erythrocytes […]; assay type: functional, organism-based
HeLa = assay: Concentration for 50% inhibition of cell growth of human HeLa cells or foreskin fibroblasts in In vitro anti-proliferative functional assay
Histone deacetylase [2] = assay: Inhibitory activity against histone deacetylase (HDAC) derived from partially purified extracts of mammalian HeLa cells; set-up: species or system Homo sapiens

SMILES	IC50 (Histone deacetylase [1]) [nM]	IC50 (Plasmodium falciparum) [µg/mL]	IC50 (Histone deacetylase [2]) [nM]	MIC (Eimeria tenella) [µg/mL]	AP50 (HeLa) [ng/mL]
CCCCCCCC[C@@H]1NC(=O)[C@H]2CCCCN2CC(=O)[C@H]([C@@H](C)CC)NC(=O)[C@H](Cc2cn(OC)c3ccccc23)NC1=O	61	0.61 (≈ 0.978 µM)	–	1 (≈ 1.6 µM)	–
CCC(N)CCCCC[C@@H]1NC(=O)[C@H]2CCCCN2CC(=O)[C@H]([C@@H](C)CC)NC(=O)[C@H](Cc2cn(OC)c3ccccc23)NC1=O (some centres not stated)	144	> 1	–	> 1	–
CC[C@H](C)[C@@H]1NC(=O)[C@H](Cc2cn(OC)c3ccccc23)NC(=O)[C@H](CCCCCP(=O)(OC)OC)NC(=O)[C@H]2CCCCN2CC1=O	450	0.85 (≈ 1.23 µM)	–	> 1	–
CC[C@H](C)[C@@H]1NC(=O)[C@H](Cc2cn(OC)c3ccccc23)NC(=O)[C@H](CCCCCC(=O)C2CO2)NC(=O)[C@H]2CCCCN2CC1=O (some centres not stated)	< 0.1	< 0.015	–	0.003 (≈ 0.0046 µM)	–
CC[C@H](C)[C@@H]1NC(=O)[C@H](Cc2cn(OC)c3ccccc23)NC(=O)[C@H](CCCCCC2(CC)CO2)NC(=O)[C@H]2CCCCN2CC1=O (some centres not stated)	60	1 (≈ 1.53 µM)	–	> 1	–
CCC(=O)CCCCC[C@@H]1/N=C(\S)[C@H]2CCCCN2CC(=O)[C@H]([C@@H](C)CC)/N=C(\S)[C@H](Cc2cn(OC)c3ccccc23)NC1=O	–	0.1 (≈ 0.149 µM)	–	0.125 (≈ 0.187 µM)	1000
CCC(=O)CCCCC[C@@H]1NC(=O)[C@H]2CCCCN2CC(=O)[C@H]([C@@H](C)CC)/N=C(\S)[C@H](Cc2cn(OC)c3ccccc23)N=C1S	–	0.1 (≈ 0.149 µM)	–	0.125 (≈ 0.187 µM)	1000
CC[C@H](C)[C@@H]1NC(=O)[C@H](Cc2cn(OC)c3ccccc23)NC(=O)[C@H](CCCCNC(C)=O)NC(=O)[C@H]2CCCCN2CC1=O	2000	1 (≈ 1.6 µM)	–	> 1	–
CC[C@H](C)[C@@H]1NC(=O)[C@H](Cc2cn(OC)c3ccccc23)NC(=O)[C@H](CCCCCP(=O)([O-])O)NC(=O)[C@H]2CCCCN2CC1=O.[K+]	180	> 1	–	> 1	–
CCC(=O)C(=O)CCCC[C@@H]1NC(=O)[C@H]2CCCCN2CC(=O)[C@H]([C@@H](C)CC)NC(=O)[C@H](Cc2cn(OC)c3ccccc23)NC1=O	18	0.7 (≈ 1.07 µM)	–	0.313 (≈ 0.48 µM)	–
CCC(=O)C(O)CCCC[C@@H]1NC(=O)[C@H]2CCCCN2CC(=O)[C@H]([C@@H](C)CC)NC(=O)[C@H](Cc2cn(OC)c3ccccc23)NC1=O (some centres not stated)	39	–	–	1 (≈ 1.53 µM)	–
CCC(=O)C(F)CCCC[C@@H]1NC(=O)[C@H]2CCCCN2CC(=O)[C@H]([C@@H](C)CC)NC(=O)[C@H](Cc2cn(OC)c3ccccc23)NC1=O (some centres not stated)	110	0.7 (≈ 1.07 µM)	–	0.313 (≈ 0.477 µM)	–
CC[C@H](C)[C@@H]1NC(=O)[C@H](Cc2cn(OC)c3ccccc23)NC(=O)[C@H](CCCCC(=O)O)NC(=O)[C@H]2CCCCN2CC1=O	282	–	–	> 1	–
CC[C@H](C)[C@@H]1NC(=O)[C@H](Cc2cn(OC)c3ccccc23)NC(=O)[C@H](CCCCCC=O)NC(=O)[C@H]2CCCCN2CC1=O	6	0.5 (≈ 0.82 µM)	–	1 (≈ 1.64 µM)	–
CC[C@H](C)[C@@H]1NC(=O)[C@H](Cc2cn(OC)c3ccccc23)NC(=O)[C@H](CCCCSC(C)=O)NC(=O)[C@H]2CCCCN2CC1=O	110	> 1	–	> 1	–
CC[C@H](C)[C@@H]1NC(=O)[C@H](Cc2cn(OC)c3ccccc23)NC(=O)[C@H](CCCCCSC)NC(=O)[C@H]2CCCCN2CC1=O	326	> 1	–	> 1	–
CCC(=O)C1OC1CCC[C@@H]1NC(=O)[C@H]2CCCCN2CC(=O)[C@H]([C@@H](C)CC)NC(=O)[C@H](Cc2cn(OC)c3ccccc23)NC1=O (some centres not stated)	5	0.35 (≈ 0.537 µM)	–	0.15 (≈ 0.23 µM)	–
CC[C@H](C)[C@@H]1NC(=O)[C@H](Cc2cn(OC)c3ccccc23)NC(=O)[C@H](CCCCCC(=O)c2ccccc2)NC(=O)[C@H]2CCCCN2CC1=O	700	0.35 (≈ 0.51 µM)	–	1 (≈ 1.46 µM)	–
CCC(=O)CCCCC[C@@H]1NC(=O)[C@H]2CCCCN2CC(=O)[C@H]([C@@H](C)CC)/N=C(\S)[C@H](Cc2cn(OC)c3ccccc23)NC1=O	–	0.1 (≈ 0.153 µM)	85	0.125 (≈ 0.191 µM)	1000
CCC(CCCCC[C@@H]1NC(=O)[C@H]2CCCCN2CC(=O)[C@H]([C@@H](C)CC)NC(=O)[C@H](Cc2cn(OC)c3ccccc23)NC1=O)SC(C)=O (some centres not stated)	–	0.59 (≈ 0.845 µM)	–	0.25 (≈ 0.358 µM)	–
CC[C@H](C)[C@@H]1NC(=O)[C@H](Cc2cn(OC)c3ccccc23)NC(=O)[C@H](CCCCCSC(C)=O)NC(=O)[C@H]2CCCCN2CC1=O	3	0.9 (≈ 1.37 µM)	–	1 (≈ 1.52 µM)	–

Continued, in another order:

IC50 (Histone deacetylase [1]) [nM]	IC50 (Plasmodium falciparum) [µg/mL]	IC50 (Histone deacetylase [2]) [nM]	SMILES	MIC (Eimeria tenella) [µg/mL]	AP50 (HeLa) [ng/mL]
1450	1 (≈ 1.57 µM)	–	C=C(CC)CCCCC[C@@H]1NC(=O)[C@H]2CCCCN2CC(=O)[C@H]([C@@H](C)CC)NC(=O)[C@H](Cc2cn(OC)c3ccccc23)NC1=O	1 (≈ 1.57 µM)	–
1	0.058 (≈ 0.0909 µM)	–	CCC(=O)CCCCC[C@@H]1NC(=O)[C@H]2CCCCN2CC(=O)[C@H]([C@@H](C)CC)NC(=O)[C@H](Cc2cn(OC)c3ccccc23)NC1=O	0.094 (≈ 0.147 µM)	–
–	0.00024 (≈ 0.000375 µM)	–	CC[C@H](C)[C@@H]1NC(=O)[C@H](Cc2cn(OC)c3ccccc23)NC(=O)[C@H](CCCCCC(=O)NO)NC(=O)[C@H]2CCCCN2CC1=O	> 0.5	–
0.4	0.21 (≈ 0.328 µM)	–	CC[C@H](C)[C@@H]1NC(=O)[C@H](Cc2cn(OC)c3ccccc23)NC(=O)[C@H](CCCCCC(=O)OC)NC(=O)[C@H]2CCCCN2CC1=O	> 1	–
7	0.5 (≈ 0.765 µM)	–	CC[C@H](C)[C@@H]1NC(=O)[C@H](Cc2cn(OC)c3ccccc23)NC(=O)[C@H](CCCCCCC(=O)OC)NC(=O)[C@H]2CCCCN2CC1=O	> 1	–
848	> 1	–	CC[C@H](C)[C@@H]1NC(=O)[C@H](Cc2cn(OC)c3ccccc23)NC(=O)[C@H](CCCCCCC(=O)O)NC(=O)[C@H]2CCCCN2CC1=O	> 1	–
0.3	0.022 (≈ 0.0336 µM)	–	CC[C@H](C)[C@@H]1NC(=O)[C@H](Cc2cn(OC)c3ccccc23)NC(=O)[C@H](CCCCCC(=O)C(C)O)NC(=O)[C@H]2CCCCN2CC1=O (some centres not stated)	0.008 (≈ 0.0122 µM)	–
1	0.028 (≈ 0.0427 µM)	–	CC[C@H](C)[C@@H]1NC(=O)[C@H](Cc2cn(OC)c3ccccc23)NC(=O)[C@H](CCCCCC(=O)C(C)F)NC(=O)[C@H]2CCCCN2CC1=O (some centres not stated)	0.062 (≈ 0.0945 µM)	–
30	0.9 (≈ 1.38 µM)	–	CC[C@H](C)[C@@H]1NC(=O)[C@H](Cc2cn(OC)c3ccccc23)NC(=O)[C@H](CCCCCC(=O)C(C)=O)NC(=O)[C@H]2CCCCN2CC1=O	0.25 (≈ 0.384 µM)	–
15	> 1	–	CC[C@H](C)[C@@H]1NC(=O)[C@H](Cc2cn(OC)c3ccccc23)NC(=O)[C@H](CCCCCC(=O)O)NC(=O)[C@H]2CCCCN2CC1=O	1 (≈ 1.6 µM)	–
74	> 1	–	CC[C@H](C)[C@@H]1NC(=O)[C@H](Cc2cn(OC)c3ccccc23)NC(=O)[C@H](CCCCC(=O)OC)NC(=O)[C@H]2CCCCN2CC1=O	> 1	–
2	0.055 (≈ 0.0882 µM)	–	CC[C@H](C)[C@@H]1NC(=O)[C@H](Cc2cn(OC)c3ccccc23)NC(=O)[C@H](CCCCCC(C)=O)NC(=O)[C@H]2CCCCN2CC1=O	0.125 (≈ 0.2 µM)	–
235	0.5 (≈ 0.767 µM)	–	CC[C@H](C)[C@@H]1NC(=O)[C@H](Cc2cn(OC)c3ccccc23)NC(=O)[C@H](CCCCCC(=O)C(C)C)NC(=O)[C@H]2CCCCN2CC1=O	0.75 (≈ 1.15 µM)	–
1	0.15 (≈ 0.23 µM)	–	CCCC(=O)CCCCC[C@@H]1NC(=O)[C@H]2CCCCN2CC(=O)[C@H]([C@@H](C)CC)NC(=O)[C@H](Cc2cn(OC)c3ccccc23)NC1=O	0.125 (≈ 0.192 µM)	–
